Key:
Format in all cases: in vivo
Lolium perenne (LOLPE) [1] = test: Post-emergence herbicidal activity, glasshouse pot test; settings: 360 h, rate 125 g/ha, evaluated 15 days later, 100=total damage to plant, 0=no damage to plant
Method: (§1) Monocotyledonous and dicotyledonous test plants were sown in standard soil in pots. After cultivation for one day (pre-emergence) or after 10 days cultivation (post-emergence) under controlled conditions in a glasshouse, the plants were sprayed with an aqueous spray solution derived from the formulation of the technical active ingredient in 0.6 ml acetone and 45 ml formulation solution containing 10.6% Emulsogen EL (Registry number 61791-12-6), 42.2% N-methylpyrrolidone, 42.2% dipropylene glycol monomethyl ether (Registry number 34590-94-8) and 0.2% X-77 (Registry number 11097-66-8). The test plants were then grown in a greenhouse under optimum conditions until, 15 days later for post-emergence and 20 days for pre-emergence, the test was evaluated (100=total damage to plant; 0=no damage to plant). Test Plants: Alopecurus myosuroides (ALOMY), Avena fatua (AVEFA), Lolium perenne (LOLPE), Setaria faberi (SETFA), Digitaria sanguinalis (DIGSA), Echinochloa crus-galli (ECHCG)

[2] = system: Alopecurus myosuroides (ALOMY); test: as above; settings: 360 h, rate 125 g/ha, evaluated 15 days later, 100=total damage to plant, 0=no damage to plant
Method: as §1

Avena fatua (AVEFA) [3] = test: as above; settings: 360 h, rate 125 g/ha, evaluated 15 days later, 100=total damage to plant, 0=no damage to plant
Method: as §1

[4] = system: Echinochloa crus-galli (ECHCG); test: as above; settings: 360 h, rate 125 g/ha, evaluated 15 days later, 100=total damage to plant, 0=no damage to plant
Method: as §1

[5] = system: Digitaria sanguinalis (DIGSA); test: as above; settings: 360 h, rate 125 g/ha, evaluated 15 days later, 100=total damage to plant, 0=no damage to plant
Method: as §1

Setaria faberi (SETFA) [6] = test: as above; settings: 360 h, rate 125 g/ha, evaluated 15 days later, 100=total damage to plant, 0=no damage to plant
Method: as §1

Lolium perenne (LOLPE) [7] = test: Pre-emergence herbicidal activity, glasshouse pot test; settings: 480 h, rate 250 g/ha, evaluated 20 days later, 100=total damage to plant, 0=no damage to plant
Method: as §1

[8] = system: Alopecurus myosuroides (ALOMY); test: as above; settings: 480 h, rate 250 g/ha, evaluated 20 days later, 100=total damage to plant, 0=no damage to plant
Method: as §1

Avena fatua (AVEFA) [9] = test: as above; settings: 480 h, rate 250 g/ha, evaluated 20 days later, 100=total damage to plant, 0=no damage to plant
Method: as §1

[10] = system: Echinochloa crus-galli (ECHCG); test: as above; settings: 480 h, rate 250 g/ha, evaluated 20 days later, 100=total damage to plant, 0=no damage to plant
Method: as §1

[11] = system: Digitaria sanguinalis (DIGSA); test: as above; settings: 480 h, rate 250 g/ha, evaluated 20 days later, 100=total damage to plant, 0=no damage to plant
Method: as §1

Setaria faberi (SETFA) [12] = test: as above; settings: 480 h, rate 250 g/ha, evaluated 20 days later, 100=total damage to plant, 0=no damage to plant
Method: as §1

| Compound | pest or weed control at 125 g/ha (Lolium perenne (LOLPE) [1]) | pest or weed control at 125 g/ha [2] | pest or weed control at 125 g/ha (Avena fatua (AVEFA) [3]) | pest or weed control at 125 g/ha [4] | pest or weed control at 125 g/ha [5] | pest or weed control at 125 g/ha (Setaria faberi (SETFA) [6]) | pest or weed control at 250 g/ha (Lolium perenne (LOLPE) [7]) | pest or weed control at 250 g/ha [8] | pest or weed control at 250 g/ha (Avena fatua (AVEFA) [9]) | pest or weed control at 250 g/ha [10] | pest or weed control at 250 g/ha [11] | pest or weed control at 250 g/ha (Setaria faberi (SETFA) [12]) |
| --- | --- | --- | --- | --- | --- | --- | --- | --- | --- | --- | --- | --- |
| Cc1cc(-c2ccccc2)cc(C)c1C1=C(OC(=O)C(C)(C)C)[C@H]2[C@@H](C1=O)[C@@H]1CC[C@H]2O1 (racemic) [Compound P1, (1RS,2SR,6RS,7SR)-4-(3,5-dimethylbiphenyl-4-yl)-5-oxo-10-oxa-tricyclo[5.2.1.0^2,6]dec-3-en-3-yl 2,2-dimethylpropionate] | 90% | 100% | 50% | 100% | 80% | 80% | 100% | 100% | 70% | 100% | 100% | 90% |
| CCc1ccc(-c2ccc(Cl)cc2)cc1C1=C(O)[C@H]2[C@@H](C1=O)[C@@H]1C=C[C@H]2O1 (racemic) [Compound T4, (1RS,2SR,6RS,7SR)-4-(4′-chloro-4-ethylbiphen-3-yl)-10-oxatricyclo[5.2.1.0^2,6]dec-8-ene-3,5-dione] | 80% | 80% | 60% | 100% | 100% | 100% | 60% | 60% | 50% | 100% | 100% | 100% |
| Cc1cc(-c2ccccc2)cc(C)c1C1C(=O)[C@@H]2[C@H](C1=O)[C@H]1CC[C@@H]2O1 (mixture of isomers) [Compound T6, (1RS,2SR,6RS,7SR)-4-(3,5-dimethylbiphen-4-yl)-10-oxa-tricyclo[5.2.1.0^2,6]decane-3,5-dione] | 50% | 80% | 30% | 70% | 30% | 60% | 70% | 50% | 0% | 100% | 80% | 100% |
| CCc1ccc(-c2ccc(Cl)cc2Cl)cc1C1=C(O)[C@H]2[C@@H](C1=O)[C@@H]1CC[C@H]2O1 (racemic) [Compound T11, (1RS,2SR,6RS,7SR)-4-(2′,4′-dichloro-4-ethylbiphen-3-yl)-10-oxa-tricyclo[5.2.1.0^2,6]decane-3,5-dione] | 50% | 100% | 90% | 100% | 90% | 100% | 80% | 70% | 60% | 100% | 90% | 100% |
| CCc1ccc(-c2ccc(Cl)cc2F)cc1C1=C(O)[C@H]2[C@@H](C1=O)[C@]1(C)CC[C@@]2(C)O1 (racemic) [Compound T23, (1RS,2SR,6RS,7SR)-4-(4′-chloro-4-ethyl-2′-fluorobiphen-3-yl)-1,7-dimethyl-10-oxatricyclo[5.2.1.0^2,6]decane-3,5-dione] | 70% | 100% | 100% | 100% | 90% | 90% | 70% | 40% | 60% | 100% | 100% | 100% |
| Cc1cc(-c2ccccc2)cc(C)c1C1=C(OC(=O)C(C)C)[C@H]2[C@@H](C1=O)[C@@H]1CC[C@H]2O1 [Compound P2] | 90% | 100% | 80% | 100% | 90% | 100% | 90% | 100% | 70% | 80% | 100% | 100% |
| CC(=O)OC1=C(c2c(C)cc(-c3ccccc3)cc2C)C(=O)[C@@H]2[C@H]1[C@H]1CC[C@@H]2O1 [Compound P3] | 100% | 100% | 80% | 100% | 80% | 90% | 100% | 100% | 60% | 80% | 100% | 100% |
| Cc1cc(-c2ccccc2)cc(C)c1C1=C(OC(=O)c2c(C)noc2C)[C@H]2[C@@H](C1=O)[C@@H]1CC[C@H]2O1 [Compound P4] | 90% | 100% | 90% | 100% | 80% | 80% | 90% | 100% | 50% | 100% | 100% | 100% |
| Cc1cc(-c2ccccc2)cc(C)c1C1=C(OC(=O)C(C)(C)C)[C@H]2[C@@H](C1=O)[C@]1(C)CC[C@@]2(C)O1 [Compound P5] | 40% | 70% | 20% | 100% | 100% | 90% | 70% | 100% | 0% | 70% | 100% | 100% |
| CC(=O)OC1=C(c2c(C)cc(-c3ccccc3)cc2C)C(=O)[C@@H]2[C@H]1[C@@]1(C)CC[C@]2(C)O1 [Compound P6] | 60% | 70% | 50% | 100% | 90% | 100% | 70% | 80% | 30% | 100% | 100% | 100% |
| Cc1cc(-c2ccccc2)cc(C)c1C1=C(OC(=O)C(C)(C)C)[C@H]2[C@@H](C1=O)[C@]1(C)CC[C@H]2O1 [Compound P7] | 80% | 100% | 100% | 100% | 100% | 100% | 100% | 100% | 90% | 90% | 100% | 100% |

From US8940913B2, “Herbicides” (Syngenta Crop Protection, LLC, priority 2007, dated 2015)
